From patent publication US8455616B2, “Nuclear translocation peptide” (National Center for Global Health and Medicine, priority 2007, dated 2013)
Ends that are not written are not given here.

Legend:
[1] = tested on: HeLa cells; experiment: Cytotoxicity test (damage to intracellular DNA, anti-γ-H2AX staining); format: cell-based, human; conditions: HeLa cells incubated 2 days with peptide, fragmented double-stranded DNA stained with anti-γ-H2AX antibody, FIG. 8
Description: Testing of the peptide of the present invention for damage to intracellular DNA was performed in the following manner. • (Day 1) HeLa cells were seeded onto a dish at a concentration of 5×10^4 cells/dish, and cultured in 10% FCS/DMEM medium (2 mL). • (Day 2) Recombinant Vpr (protein derived from Vpr), C45D18 (Peptide 9), and LR20 (Peptide 1) were added, and the cells were incubated for 2 days. • (Day 4) The following sequence of treatments was performed on the cells: The dish was washed with PBS→the cells were fixed with 4% paraformaldehyde→after incubation for 20 min on ice, the cells were washed with PBS→200 μL of 1% Triton X-100/2M HCl solution was added, and the cells were incubated at room temperature for 30 min→blocking with 200 μL of 1% BSA was performed at room temperature for 1 h→anti-γ-H2AX antibody solution was added, and the fragmented double-stranded DNA was stained (37° C. for 30 min)→cy3-anti-mouse IgG solution was added, and the cells were incubated at room temperature for 30 min→the nuclei were stained with DAPI/PBST (3 min)→the cells were mounted on glass slides.
In FIG. 8 the stained parts indicate fragmented DNA.

[2] = cited from earlier work
[3] = tested on: HeLa cells; experiment: Cellular and nuclear translocation capability of magnetic particles in HeLa cells; format: cell-based, human; conditions: peptide-CMDM conjugates, iron 0.7 mg/mL, thymidine-arrested HeLa cells, 18 h exposure, T2 relaxation time by NMR, FIG. 1
Description: With respect to the amount of cellular and nuclear translocation of the aforementioned peptide-magnetic nanoparticle conjugate, the translocation capability of the peptide of the present invention can be compared with that of a previous PTD by adding the conjugate to cultured cells, separating and recovering the cytoplasm and nuclei after letting the culture stand for a set period of time, measuring the T2 relaxation time by NMR, and measuring the amount of magnetic nanoparticles taken up by the cells.
After 18 h of exposure, the cells were washed with PBS and recovered, and centrifugal separation (2000 rpm for 5 min) was performed to precipitate the cells into pellets. After the cells were resuspended by adding 700 mL of PBS, they were lysed using a Dounce homogenizer and centrifuged (2000 rpm for 5 min) into pellets. […] Then the T2 relaxation time of each resulting fraction was measured by NMR. Concurrently, the protein concentration of each fraction was measured by BSA protein assay.
Because a fixed relation is established between T2 relaxation time and magnetic substance concentration, the magnetic substance concentration can be calculated by assuming that the T2 relaxation of the sample is the same before and after the test. The calculated concentration was corrected further using the protein concentration.

Compound: CC[C@H](C)[C@H](NC(=O)[C@H](CCCNC(=N)N)NC(=O)[C@H](CO)NC(=O)[C@H](Cc1c[nH]cn1)NC(=O)[C@H](CCCNC(=N)N)NC(=O)[C@H](CS)NC(=O)CNC(=O)[C@@H](NC(=O)[C@H](CCCNC(=N)N)NC(=O)[C@H](Cc1ccccc1)NC(=O)[C@H](Cc1c[nH]cn1)NC(=O)[C@@H](NC(=O)[C@H](Cc1ccccc1)NC(=O)[C@H](CC(C)C)NC(=O)[C@H](CC(C)C)NC(=O)[C@H](CCC(N)=O)NC(=O)[C@H](CCC(N)=O)NC(=O)[C@H](CC(C)C)NC(=O)[C@@H](NC(=O)[C@@H](N)CCCNC(=N)N)[C@@H](C)CC)[C@@H](C)CC)[C@@H](C)CC)C(=O)O [Peptide 1, RILQQLLFIHFRIGCRHSRI]
- DNA damage (cytotoxicity) [1]: extent of DNA damage is decreased

Compound: DTWAGVEAIIRILQQLLFIHFRIGCRH [Peptide 9]
- translocation capability relative to a protein originating in Vpr ([2]; Taguchi et al., Biochem. Biophys. Res. Comm., 320, 18 (2004)): stronger translocation capability than a protein originating in Vpr
- translocation capability of conjugates with enzymatic proteins relative to the Tat peptide ([2]; conjugates of C45D18 and enzymatic proteins, into a cell and into a nucleus, Taguchi et al. (2004)): greater than that of the Tat peptide

Compound: Peptide 12: PTD peptide discovered during research to enhance the function of the Tat peptide (Mukai et al.), synthesized with additional GGC (THRLPRRRRRR; YM-3 peptide)
- cellular translocation capability relative to the Tat peptide ([2]; Mukai et al., Biol. Pharm. Bull. 29(8), 1570 (2006)): approximately three times higher than that of the Tat peptide

Compound: R I L Q Q L L F I H F R I G C [Peptide 3]
- cellular and nuclear translocation capability [3]: best cellular and nuclear translocation capability

Compound: RIFIHFRIGC [Peptide 4, R I F I H F R I G C]
- DNA damage (cytotoxicity) [1]: no damage to DNA was seen
